Tests used:
[1] = target: T1, interaction between the recombinant extracellular domain (ECD) of PD-1 and native cell-bound PD-L1 (Homo sapiens, UniProt Q9NZQ7); test: CHO/PD-L1 cell capture assay; assay type: cell-based; settings: CHO cells overexpressing PD-L1, pre-incubated 1 hr with compound, captured on biotinylated Fc-PD-1 coated plates, 75 min at room temperature
T1 construct: expressed in transfected cells
How it was run: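 EC50 values came from four-parameter fits of counts of Draq5-stained CHO-PD-L1 cells retained on plate-bound biotinylated Fc-PD-1 ECD, enumerated by high-content imaging. Cells in PBS pH 7.4 with EDTA and 2% BSA had 1 hr compound pre-incubation, then 75 min capture at room temperature.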

PD-1/PD-L1 interaction = target: T2, PD-1/PD-L1 interaction (Homo sapiens, UniProt Q9NZQ7); test: PD-1/PD-L1 NFAT reporter co-culture assay; assay type: cell-based; settings: Jurkat PD-1 NFAT-luciferase cells co-cultured with aAPC-PD-L1 CHO cells, 6 hrs at 37° C.; read-out: EC50 NFAT Luciferase
T2 construct: expressed in transfected cells; host or cells: CHO cells (aAPC-PD-L1) co-cultured with Jurkat cells overexpressing PD-1 and an NFAT-luciferase reporter
How it was run: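 Jurkat cells overexpressing PD-1 with NFAT-luciferase mixed with compounds and plated onto CHO aAPCs expressing anti-CD3 and PD-L1, RPMI with 2% FBS. Co-culture 6 h at 37 °C; luminescence read with ONE-Glo. EC50 from four-parameter fit.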

PD-1/PD-L1 = PD-1/PD-L1 (Homo sapiens, UniProt Q9NZQ7); test: PD-1/PD-L1 biochemical protein-protein interaction assay (ALPHA); assay type: binding; settings: 0.3 nM His tagged PD-L1, 2.5 nM biotinylated Fc-PD-1, 60 minutes at 25° C., read-out: IC50 PD-L1-PD-1 Alpha IC50-mono PD-L1-fcP-D1
How it was run: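 IC50 values derive from four-parameter fits of ALPHA signal decrease. Assay: 0.3 nM His-tagged PD-L1 with 2.5 nM biotinylated Fc-PD-1, Hepes pH 7.4 with 0.005% Tween 20 and 0.01% BSA, 60 min at 25° C, then anti-His acceptor and streptavidin donor beads.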

Sequence of PD-1/PD-L1 (Q9NZQ7 19-238 limits assumed): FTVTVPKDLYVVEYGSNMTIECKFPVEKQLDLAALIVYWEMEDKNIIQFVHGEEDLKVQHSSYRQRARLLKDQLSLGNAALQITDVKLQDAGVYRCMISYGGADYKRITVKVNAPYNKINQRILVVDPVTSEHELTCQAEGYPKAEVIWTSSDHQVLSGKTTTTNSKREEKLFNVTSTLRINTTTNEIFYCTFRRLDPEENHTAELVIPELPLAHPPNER
T2 sequence (Q9NZQ7 19-290): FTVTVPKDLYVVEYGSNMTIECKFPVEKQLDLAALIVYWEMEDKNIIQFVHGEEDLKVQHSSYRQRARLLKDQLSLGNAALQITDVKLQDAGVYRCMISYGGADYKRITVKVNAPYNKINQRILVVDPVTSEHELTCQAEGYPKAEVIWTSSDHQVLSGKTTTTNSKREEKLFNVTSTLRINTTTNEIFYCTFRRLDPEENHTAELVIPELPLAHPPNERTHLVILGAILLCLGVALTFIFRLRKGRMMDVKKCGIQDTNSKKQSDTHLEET
T1 sequence (Q9NZQ7 19-290): as above

SMILES	EC50 [1] [nM]	EC50 (PD-1/PD-L1 interaction) [nM]	IC50 (PD-1/PD-L1) [nM]
COc1nc(OCc2cccc(-c3cccc(COc4nc(OC)c(CNC[C@@H](O)CC(=O)O)cc4I)c3C)c2C)c(I)cc1CNC[C@@H](O)CC(=O)O [Example 241, (3S,3′S)-4,4′-((((((2,2′-dimethyl-[1,1′-biphenyl]-3,3′-diyl)bis(methylene))bis(oxy))bis(5-iodo-2-methoxypyridine-6,3-diyl))bis(methylene))bis(azanediyl))bis(3-hydroxybutanoic acid)]	166	275	0.6
Cc1c(COc2nc(OCc3cncc(S(C)(=O)=O)c3)c(CNC[C@@H](O)CC(=O)O)cc2Br)cccc1-c1cccc(COc2nc(OCc3cncc(S(C)(=O)=O)c3)c(CNC[C@@H](O)CC(=O)O)cc2Br)c1C [Example 42, (3S,3′S)-4,4′-((((((2,2′-dimethyl-[1,1′-biphenyl]-3,3′-diyl)bis(methylene))bis(oxy))bis(5-bromo-2-((5-(methylsulfonyl)pyridin-3-yl)methoxy)pyridine-6,3 diyl))bis(methylene))bis(azanediyl))bis(3-hydroxybutanoic acid)]	149	123	0.3
COc1nc(OCc2cccc(-c3cccc(COc4ccc(CN[C@@](C)(CO)C(=O)O)c(OC)n4)c3C)c2C)ccc1CN[C@@](C)(CO)C(=O)O [Example 61, (2S,2′S)-2,2′-((((((2,2′-dimethyl-[1,1′-biphenyl]-3,3′-diyl)bis(methylene))bis(oxy))bis(2-methoxypyridine-6,3-diyl))bis(methylene))bis(azanediyl))bis(3-hydroxy-2-methylpropanoic acid)]	200	6780	0.7
Cc1c(COc2nc(OCc3cncc(S(C)(=O)=O)c3)c(CN[C@@](C)(CO)C(=O)O)cc2Br)cccc1-c1cccc(COc2nc(OCc3cncc(S(C)(=O)=O)c3)c(CN[C@@](C)(CO)C(=O)O)cc2Br)c1C [Example 41, (2S,2′S)-2,2′-((((((2,2′-dimethyl-[1,1′-biphenyl]-3,3′-diyl)bis(methylene))bis(oxy))bis(5-bromo-2-((5-(methylsulfonyl)pyridin-3-yl)methoxy)pyridine-6,3-diyl))bis(methylene))bis(azanediyl))bis(3-hydroxy-2-methylpropanoic acid)]	248	188	0.2
Cc1c(COc2cc(OCc3cncc(C#N)c3)c(CNCCO)cc2Cl)cccc1-c1cccc(COc2cc(OCc3cncc(C#N)c3)c(CNCCO)cc2Cl)c1C [Example 68, 5,5′-((((((2,2′-dimethyl-[1,1′-biphenyl]-3,3′-diyl)bis(methylene))bis(oxy))bis(4-chloro-6-(((2-hydroxyethyl)amino)methyl)-3,1-phenylene))bis(oxy))bis(methylene))dinicotinonitrile]	279	553	10.3
COc1nc(O[C@H]2CCc3c(-c4cccc5c4CC[C@@H]5Oc4ccc(CNC[C@@H](O)CC(=O)O)c(OC)n4)cccc32)ccc1CNC[C@@H](O)CC(=O)O [Example 11, (3S,3′S)-4,4′-((((((1S,1′S)-2,2′,3,3′-tetrahydro-1H,1′H-[4,4′-biindene]-1,1′-diyl)bis(oxy))bis(2-methoxypyridine-6,3-diyl))bis(methylene))bis(azanediyl))bis(3-hydroxybutanoic acid)]	170	1100	0.4
Cc1c(COc2ccc(CNC[C@@H](O)CC(=O)O)c(OCc3cncc(C#N)c3)c2)cccc1-c1cccc(COc2ccc(CNC[C@@H](O)CC(=O)O)c(OCc3cncc(C#N)c3)c2)c1C [Example 248, (3S,3′S)-4,4′-((((((2,2′-dimethyl-[1,1′-biphenyl]-3,3′-diyl)bis(methylene))bis(oxy))bis(2-((5-cyanopyridin-3-yl)methoxy)-4,1-phenylene))bis(methylene))bis(azanediyl))bis(3-hydroxybutanoic acid)]	200	540	0.2
Cc1c(COc2nc(OCc3cncnc3)c(CNC[C@@H](O)CC(=O)O)cc2Br)cccc1-c1cccc(COc2nc(OCc3cncnc3)c(CNC[C@@H](O)CC(=O)O)cc2Br)c1C [Example 126, (3S,3′S)-4,4′-((((((2,2′-dimethyl-[1,1′-biphenyl]-3,3′-diyl)bis(methylene))bis(oxy))bis(5-bromo-2-(pyrimidin-5-ylmethoxy)pyridine-6,3-diyl))bis(methylene))bis(azanediyl))bis(3-hydroxybutanoic acid)]	180	327	0.1
Cc1c(COc2cc(OCc3cncc(C#N)c3)c(CNC[C@@H](O)CC(N)=O)cc2Cl)cccc1-c1cccc(COc2cc(OCc3cncc(C#N)c3)c(CNC[C@@H](O)CC(N)=O)cc2Cl)c1C [Example 165, (3S,3′S)-4,4′-((((((2,2′-dimethyl-[1,1′-biphenyl]-3,3′-diyl)bis(methylene))bis(oxy))bis(5-chloro-2-((5-cyanopyridin-3-yl)methoxy)-4,1-phenylene))bis(methylene))bis(azanediyl))bis(3-hydroxybutanamide)]	156	352	5.8
COc1nc(OC2CCc3c(-c4cccc5c4CCC5Oc4ccc(CNC[C@@H](O)CC(=O)O)c(OC)n4)cccc32)ccc1CNC[C@@H](O)CC(=O)O (stereo partly drawn) [Example 13, (3S,3′S)-4,4′-(((((2,2′,3,3′-tetrahydro-1H,1′H-[4,4′-biindene]-1,1′-diyl)bis(oxy))bis(2-methoxypyridine-6,3-diyl))bis(methylene))bis(azanediyl))bis(3-hydroxybutanoic acid)]	457	4800	2.2
Cc1c(COc2nc(OCc3cncc(C#N)c3)c(CNC[C@@H](O)CC(=O)O)cc2Cl)cccc1-c1cccc(COc2nc(OCc3cncc(C#N)c3)c(CNC[C@@H](O)CC(=O)O)cc2Cl)c1C [Example 34, (3S,3′S)-4,4′-((((((2,2′-dimethyl-[1,1′-biphenyl]-3,3′-diyl)bis(methylene))bis(oxy))bis(5-chloro-2-((5-cyanopyridin-3-yl)methoxy)pyridine-6,3-diyl))bis(methylene))bis(azanediyl))bis(3-hydroxybutanoic acid)]	321	195	0.4

The next compounds have a lower EC50 [1] than those just listed; values first:

EC50 [1] [nM]	EC50 (PD-1/PD-L1 interaction) [nM]	IC50 (PD-1/PD-L1) [nM]	SMILES
42.1	127	0.3	Cc1c(COc2nc(OCc3cncc(C#N)c3)c(CNC[C@H](O)CC(=O)O)cc2Cl)cccc1-c1cccc(COc2nc(OCc3cncc(C#N)c3)c(CNC[C@H](O)CC(=O)O)cc2Cl)c1C [Example 32, (3R,3′R)-4,4′-((((((2,2′-dimethyl-[1,1′-biphenyl]-3,3′-diyl)bis(methylene))bis(oxy))bis(5-chloro-2-((5-cyanopyridin-3-yl)methoxy)pyridine-6,3-diyl))bis(methylene))bis(azanediyl))bis(3-hydroxybutanoic acid)]
102	340	0.5	COc1nc(OC2CCc3c(-c4cccc5c4CCC5Oc4nc(OC)c(CNC[C@@H](O)CC(=O)O)cc4Cl)cccc32)c(Cl)cc1CNC[C@@H](O)CC(=O)O (stereo partly drawn) [Example 9, (3S,3′S)-4,4′-(((((2,2′,3,3′-tetrahydro-1H,1′H-[4,4′-biindene]-1,1′-diyl)bis(oxy))bis(5-chloro-2-methoxypyridine-6,3-diyl))bis(methylene))bis(azanediyl))bis(3-hydroxybutanoic acid)]
117	1200	0.3	CNC(=O)COc1nc(OCc2cccc(-c3cccc(COc4nc(OCC(=O)NC)c(CNC[C@@H](O)CC(=O)O)cc4Br)c3C)c2C)c(Br)cc1CNC[C@@H](O)CC(=O)O [Example 147, (3S,3′S)-4,4′-((((((2,2′-dimethyl-[1,1′-biphenyl]-3,3′-diyl)bis(methylene))bis(oxy))bis(5-bromo-2-(2-(methylamino)-2-oxoethoxy)pyridine-6,3-diyl))bis(methylene))bis(azanediyl))bis(3-hydroxybutanoic acid)]
38.1	29	0.1	COc1nc(O[C@H]2CCc3c(-c4cccc5c4CC[C@@H]5Oc4nc(OC)c(CN[C@@](C)(CO)C(=O)O)cc4Br)cccc32)c(Br)cc1CN[C@@](C)(CO)C(=O)O [Example 5, (2S,2′S)-2,2′-((((((1S,1′S)-2,2′,3,3′-tetrahydro-1H,1′H-[4,4′-biindene]-1,1′-diyl)bis(oxy))bis(5-bromo-2-methoxypyridine-6,3-diyl))bis(methylene))bis(azanediyl))bis(3-hydroxy-2-methylpropanoic acid)]
129	288	0.2	Cc1c(COc2ccc(CNC[C@@H](O)CC(=O)O)c(OCc3cncc(C#N)c3)n2)cccc1-c1cccc(COc2ccc(CNC[C@@H](O)CC(=O)O)c(OCc3cncc(C#N)c3)n2)c1C [Example 242, (3S,3′S)-4,4′-((((((2,2′-dimethyl-[1,1′-biphenyl]-3,3′-diyl)bis(methylene))bis(oxy))bis(2-((5-cyanopyridin-3-yl)methoxy)pyridine-6,3-diyl))bis(methylene))bis(azanediyl))bis(3-hydroxybutanoic acid)]
